Test results: ChEMBL document CHEMBL6083269, “Design, synthesis, in vitro and in vivo trypanosomaticidal efficacy of novel 5-nitroindolylazines” (Eur J Med Chem, 2024)
Activity calls are given as the source filed them. The calls are words filed in the database; no cut-off is given here.

Experiments:
Leishmania donovani [1] = experiment: Leishmanicidal activity against Leishmania donovani 9515 (MHOM/IN/95/9151) amastigote infected in THP-1 cells incubated for 72 hrs by resazurin dye based plate reader assay; type: functional, organism-based; conditions: THP-1, 72 h
[2] = Selectivity index, ratio of CC50 for MDBK to IC50 for Trypanosoma brucei brucei GUTat3.1; type: toxicity, cell-based; conditions: cattle, MDBK cells; read-out: Ratio CC50/IC50
[3] = system: Trypanosoma brucei brucei; experiment: Trypanocidal activity against Trypanosoma brucei brucei GUTat3.1 incubated for 72 hrs by CellTiter-Glo reagent based […] analysis; type: functional, organism-based; conditions: GUTat3.1, 72 h
[4] = Cytotoxicity against green monkey Vero cells incubated for 48 hrs by resazurin dye based assay; type: toxicity, cell-based; conditions: African green monkey (Chlorocebus sabaeus)
Trypanosoma equiperdum = experiment: Trypanocidal activity against Trypanosoma equiperdum IVM-t1 incubated for 72 hrs by CellTiter-Glo reagent based […] analysis; type: functional, organism-based; conditions: IVM-t1, 72 h
[5] = Selectivity index, ratio of CC50 for MDBK to IC50 for Trypanosoma congolense IL3000; type: toxicity, cell-based; conditions: cattle, MDBK cells; read-out: Ratio CC50/IC50
[6] = Selectivity index, ratio of CC50 for MDBK to IC50 for Trypanosoma brucei gambiense IL1922; type: toxicity, cell-based; conditions: cattle, MDBK cells; read-out: Ratio CC50/IC50
Trypanosoma evansi = experiment: Trypanocidal activity against Trypanosoma evansi Tansui incubated for 72 hrs by CellTiter-Glo reagent based […] analysis; type: functional, organism-based
[7] = Selectivity index, ratio of CC50 for MDBK to IC50 for Trypanosoma brucei rhodesiense IL1501; type: toxicity, cell-based; conditions: cattle, MDBK cells; read-out: Ratio CC50/IC50
[8] = Selectivity index, ratio of IC50 for human THP-1 cells to IC50 for Leishmania donovani 9515 (MHOM/IN/95/9151) promastigote; type: toxicity, cell-based; conditions: read-out: Ratio IC50
[9] = Cytotoxicity against human […]-differentiated THP-1 cells incubated for 72 hrs by resazurin dye based assay; type: toxicity, cell-based
[10] = Cytotoxicity against MDBK cells incubated for 72 hrs by CCK8 assay; type: toxicity, cell-based, Bos taurus; conditions: cattle; for CC50: mdbk, 72 h; for CC50 at 72 h: MDBK cells
Leishmania donovani [11] = experiment: Antileishmanial activity against Leishmania donovani 9515 (MHOM/IN/95/9151) amastigote infected in THP-1 cells assessed as inhibition of parasite growth incubated for 72 hrs by resazurin dye based plate reader assay; type: functional, organism-based; conditions: THP-1, 72 h
Trypanosoma congolense [12] = experiment: Trypanocidal activity against Trypanosoma congolense IL3000 incubated for 72 hrs by CellTiter-Glo reagent based […] analysis; type: functional, organism-based; conditions: IL3000, 72 h
[13] = system: Trypanosoma brucei rhodesiense; experiment: Trypanocidal activity against Trypanosoma brucei rhodesiense IL1501 incubated for 72 hrs by CellTiter-Glo reagent based […] analysis; type: functional, organism-based; conditions: IL1501, 72 h
[14] = Selectivity index, ratio of IC50 for african green monkey Vero cells to IC50 for Leishmania donovani 9515 (MHOM/IN/95/9151) promastigote; type: toxicity, cell-based; conditions: read-out: Ratio IC50
[15] = system: Trypanosoma brucei gambiense; experiment: Trypanocidal activity against Trypanosoma brucei gambiense IL1922 incubated for 72 hrs by CellTiter-Glo reagent based […] analysis; type: functional, organism-based; conditions: IL1922, 72 h
[16] = Selectivity index, ratio of CC50 for MDBK to IC50 for Trypanosoma evansi Tansui; type: toxicity, cell-based; conditions: cattle, MDBK cells; read-out: Ratio CC50/IC50
[17] = Selectivity index, ratio of CC50 for MDBK to IC50 for Trypanosoma equiperdum IVM-t1; type: toxicity, cell-based; conditions: cattle, MDBK cells; read-out: Ratio CC50/IC50
Leishmania donovani [18] = experiment: Antileishmanial activity against Leishmania donovani 9515 (MHOM/IN/95/9151) promastigote incubated for 48 hrs by resazurin dye based plate reader assay; type: functional, organism-based
[19] = Selectivity index, ratio of IC50 for human THP-1 cells to IC50 for static antileishmanial activity against Leishmania donovani 9515 (MHOM/IN/95/9151) amastigote; type: toxicity, cell-based; conditions: read-out: Ratio IC50
Leishmania major [20] = experiment: Antileishmanial activity against Leishmania major NIH-S (MHOM/SN/74/Seidman) amastigote infected in THP-1 cells assessed as inhibition of parasite growth incubated for 72 hrs by resazurin dye based plate reader assay; type: functional, organism-based; conditions: THP-1, 72 h
[21] = Selectivity index, ratio of IC50 for african green monkey Vero cells to IC50 for leishmanicidal activity against Leishmania donovani 9515 (MHOM/IN/95/9151) amastigote; type: toxicity, cell-based; conditions: read-out: Ratio IC50
[22] = Selectivity index, ratio of IC50 for human THP-1 cells to IC50 for leishmanicidal activity against Leishmania donovani 9515 (MHOM/IN/95/9151) amastigote; type: toxicity, cell-based; conditions: read-out: Ratio IC50
Leishmania major [23] = experiment: Antileishmanial activity against Leishmania major IR-173 (MHO-M/IR/-173) promastigote incubated for 48 hrs by resazurin dye based plate reader assay; type: functional, organism-based
[24] = Selectivity index, ratio of IC50 for african green monkey Vero cells to IC50 for static antileishmanial activity against Leishmania donovani 9515 (MHOM/IN/95/9151) amastigote; type: toxicity, cell-based; conditions: read-out: Ratio IC50
[25] = Selectivity index, ratio of IC50 for human THP-1 cells to IC50 for Leishmania major IR-173 (MHO-M/IR/-173) promastigote; type: toxicity, cell-based; conditions: read-out: Ratio IC50
Leishmania major [26] = experiment: Leishmanicidal activity against Leishmania major NIH-S (MHOM/SN/74/Seidman) amastigote incubated for 48 hrs by resazurin dye based plate reader assay; type: functional, organism-based
[27] = Selectivity index, ratio of IC50 for african green monkey Vero cells to IC50 for Leishmania major IR-173 (MHO-M/IR/-173) promastigote; type: toxicity, cell-based; conditions: read-out: Ratio IC50
[28] = Selectivity index, ratio of IC50 for african green monkey Vero cells to IC50 for Leishmania donovani; type: toxicity, cell-based; conditions: read-out: Ratio IC50
Trypanosoma cruzi [29] = experiment: Antitrypanosomal activity against Trypanosoma cruzi Tulahuen C4 strain trypomastigotes assessed as growth inhibition at 20 uM incubated for 48 hrs by resazurin dye based assay; type: functional; design: scale not given: the % may be the effect or the level left
Trypanosoma cruzi [30] = experiment: Antitrypanosomal activity against Trypanosoma cruzi Tulahuen C4 strain amastigotes infected in Vero cells incubated for 72 hrs by beta-galactosidase based assay; type: functional, organism-based
[31] = Selectivity index, ratio of IC50 for african green monkey Vero cells to IC50 for Trypanosoma cruzi Tulahuen C4 strain; type: toxicity, cell-based; conditions: read-out: Ratio IC50
[32] = Selectivity index, ratio of IC50 for african green monkey Vero cells to IC50 for static antileishmanial activity against Leishmania major NIH-S (MHOM/SN/74/Seidman) amastigote; type: toxicity, cell-based; conditions: read-out: Ratio IC50
[33] = Selectivity index, ratio of IC50 for african green monkey Vero cells to IC50 for leishmanicidal activity against Leishmania major NIH-S (MHOM/SN/74/Seidman) amastigote; type: toxicity, cell-based; conditions: read-out: Ratio IC50
[34] = Selectivity index, ratio of IC50 for human THP-1 cells to IC50 for Trypanosoma cruzi Tulahuen C4 strain; type: toxicity, cell-based; conditions: read-out: Ratio IC50
[35] = Selectivity index, ratio of IC50 for human THP-1 cells to IC50 for leishmanicidal activity against Leishmania major NIH-S (MHOM/SN/74/Seidman); type: toxicity, cell-based; conditions: read-out: Ratio IC50
Trypanosoma congolense [36] = experiment: Antitrypanosomal activity against Trypanosoma congolense IL3000 infected in BALB/c mouse assessed as increase in animal survival time at 100 mg/kg, po or 10 mg/kg, ip administered for 7 consecutive days starting from 6 days post infection (reference value: 9 day); type: functional; conditions: time 7 day
Trypanosoma congolense [37] = experiment: Antitrypanosomal activity against Trypanosoma congolense IL3000 infected in BALB/c mouse assessed as animal survival at 100 mg/kg, po or 10 mg/kg, ip administered for 7 consecutive days starting from 6 days post infection and measured after 13 days post infection; type: functional, organism-based; conditions: time 7.0 day
[38] = Selectivity index, ratio of IC50 for human THP-1 cells to IC50 for static antileishmanial activity against Leishmania major NIH-S (MHOM/SN/74/Seidman) amastigote; type: toxicity, cell-based; conditions: read-out: Ratio IC50

SMILES	IC50 (Leishmania donovani [1]) [µM]	selectivity ratio [2]	IC50 [3] [µM]	IC50 at 48 h [4] [µM]	IC50 (Trypanosoma equiperdum) [µM]	selectivity ratio [5]	selectivity ratio [6]	IC50 (Trypanosoma evansi) [µM]	selectivity ratio [7]	selectivity ratio [8]	IC50 at 72 h [9] [µM]	IC50 (Leishmania donovani [11]) [µM]	IC50 (Trypanosoma congolense [12]) [µM]	IC50 [13] [µM]	IC50 [15] [µM]	IC50 (Leishmania donovani [18]) [µM]	selectivity ratio [19]	selectivity ratio [21]	selectivity ratio [22]	selectivity ratio [24]	further results
C#CCn1cc(/C=N\N=C\C(C)=Cc2ccccc2)c2cc([N+](=O)[O-])ccc21	> 10	0.34	26.7	9.59	29	0.94	0.34	22.7	0.93	13	> 100	> 10	> 9.79	9.86	27.2	7.88					CC50 [10]: 226 µM; selectivity ratio [14]: 1; selectivity ratio [16]: 0.41; selectivity ratio [17]: 0.32
C#CCn1cc(\C=N/N=C/C=C/c2ccccc2)c2cc([N+](=O)[O-])ccc21	0.69		> 70.2	24.5	> 70.2	> 29.9		> 70.2			35.8	0.34	9.4	> 70.2	> 70.2	> 10	75	37	52	75	IC50 (Leishmania major [20]): > 10 µM; CC50 at 72 h [10]: 9.2 µM; IC50 (Leishmania major [23]): 8.08 µM; selectivity ratio [25]: 4; IC50 (Leishmania major [26]): > 10 µM; selectivity ratio [27]: 3
C#CCn1cc(/C=N/N=C\C=C(C)C)c2cc([N+](=O)[O-])ccc21	1.03	1.82	37.4	80.3	27	2.41	2.04	39.6	1.96	9	92.6	0.53	28.3	34.7	33.4	10	175	78	90	152	CC50 [10]: > 325 µM; selectivity ratio [14]: 8; selectivity ratio [16]: 1.72; selectivity ratio [17]: 2.53
C#CCn1cc(/C=N\N=C\c2ccco2)c2cc([N+](=O)[O-])ccc21	2.58		> 78	> 100	> 78			> 78			> 100	0.89	> 78	> 78	> 78	> 10	112	> 39	> 39	> 112	IC50 (Leishmania major [20]): > 10 µM; CC50 at 72 h [10]: > 312 µM; IC50 (Leishmania major [23]): 4.9 µM; selectivity ratio [25]: 20; IC50 (Leishmania major [26]): > 10 µM; selectivity ratio [27]: 20
C#CCn1cc(/C=N\N=C\c2cccs2)c2cc([N+](=O)[O-])ccc21	0.67	> 13.9	21.4	10.8	18.4	> 75.4	20.2	18.5	18.3	2	16.6	0.89	3.94	16.3	14.7	7.02	16	16	25	12	CC50 at 72 h [10]: > 297 µM; selectivity ratio [14]: 2; selectivity ratio [16]: > 16.1; selectivity ratio [17]: > 16.2
O=[N+]([O-])c1ccc(/C=N/N=C/c2ccc(OCc3ccccc3)cc2)o1																					selectivity ratio [28]: 400
O=Cc1ccc([N+](=O)[O-])o1																					selectivity ratio [28]: 2
O=C(Cn1ccnc1[N+](=O)[O-])NCc1ccccc1 [BENZNIDAZOLE]																					Activity (Trypanosoma cruzi [29]): 100%; IC50 (Trypanosoma cruzi [30]): 2.7 µM
C#CCn1cc(/C=N\N=C\c2ccc([N+](=O)[O-])s2)c2cc([N+](=O)[O-])ccc21	3.51	> 790	0.33	51.1	0.34	> 2950	> 1070	0.3	> 753	51	> 100	2.34	0.09	0.35	0.25	1.95	42	15	> 28	22	selectivity ratio [31]: 62; selectivity ratio [32]: 142; selectivity ratio [33]: 25; IC50 (Leishmania major [20]): 0.36 µM; Activity (Trypanosoma cruzi [29]): 59%; IC50 (Trypanosoma cruzi [30]): 0.82 µM; selectivity ratio [34]: 121; selectivity ratio [35]: 58; Survival (Trypanosoma congolense [36]): 10.5 days; Activity (Trypanosoma congolense [37]): inactive; CC50 at 72 h [10]: > 263 µM; IC50 (Leishmania major [23]): > 10 µM; IC50 (Leishmania major [26]): 1.74 µM; selectivity ratio [14]: 26; selectivity ratio [16]: > 864; selectivity ratio [17]: > 780; selectivity ratio [38]: 278
C#CCn1cc(/C=N\N=C\c2ccc([N+](=O)[O-])o2)c2cc([N+](=O)[O-])ccc21	3.29	> 222	1.24	8.07	1.88	> 3280	> 405	1.96	> 364	332	66.3	3.27	0.08	0.75	0.68	0.2	20	2	20	2	selectivity ratio [31]: 6; selectivity ratio [32]: 7; selectivity ratio [33]: 6; IC50 (Leishmania major [20]): 1.09 µM; Activity (Trypanosoma cruzi [29]): 22%; IC50 (Trypanosoma cruzi [30]): 1.21 µM; selectivity ratio [34]: 55; selectivity ratio [35]: 47; Survival (Trypanosoma congolense [36]): 9.5 days; Activity (Trypanosoma congolense [37]): inactive; CC50 at 72 h [10]: > 274 µM; IC50 (Leishmania major [23]): 0.08 µM; selectivity ratio [25]: 829; IC50 (Leishmania major [26]): 1.41 µM; selectivity ratio [14]: 40; selectivity ratio [16]: > 140; selectivity ratio [17]: > 146; selectivity ratio [27]: 106; selectivity ratio [38]: 60
